Results as given in publication PMC5306062, “Pharmacology and toxicology of the novel investigational agent Cantrixil (TRX-E-002-1)” (Cancer Chemotherapy and Pharmacology, 2016).
Where “and” joins values, the source holds several entries; their conditions need not be identical. Equal entries are not always repeated. Where two headings read alike, the source gives them in different places.

How the values were obtained:
[1] = Excretion study in rats, single intraperitoneal injection; assay type: in vivo, female Sprague–Dawley rats; settings: 100 mg/kg i.p.
Method: Excretion of TRX-E-002-1 was investigated in female Sprague–Dawley rats that received a single intraperitoneal injection of TRX-E-002-1 100 mg/kg in 20% SBECD. High levels of parent drug were measured in urine up to 24 h after dosing and in faeces up to 48 h after dosing. The glucuronide conjugate, measured as the increase in TRX-E-002-1 following treatment of the samples with beta-glucuronidase, was found at levels similar to those of parent drug in faeces (rectal contents) up to 2 h after dosing, but was barely detectable in urine. Total amounts of parent drug and glucuronide excreted in faeces and urine were not calculated, so that the relative contributions of renal and biliary excretion pathways cannot be evaluated.

CYP3A4 [2] = experiment: CYP induction in human hepatocytes; assay type: in vitro ADME; settings: one of three donors
Text: (§1) Potential induction of human drug-metabolizing cytochrome P450 enzymes by TRX-E-002-1 was also investigated in human hepatocytes in vitro (VPT3079/2015). No evidence of CYP1A2 induction was observed.

CYP1A2 [3] = experiment: CYP induction in human hepatocytes; assay type: in vitro ADME
Text: as §1

CYP2B6 = experiment: CYP induction in human hepatocytes; assay type: in vitro ADME; settings: one of three donors
Text: as §1

[4] = system: mouse lymphoma L5178Y cells; experiment: In vitro mammalian cell mutation assay, thymidine kinase locus; settings: 3 h with and without S9, 24 h without S9
Method: Genotoxicity testing of TRX-E-002-1 was performed in an ICH-compliant test battery (see ICH Guideline S2A), comprising an in vitro bacterial reverse mutation test, an in vitro mammalian cell mutation assay and an in vivo rodent bone marrow micronucleus assay. The assays were performed in compliance with GLP regulations.
The in vitro mammalian cell mutation assay utilised the forward mutation system at the thymidine kinase locus of the mouse lymphoma L5178Y cells using a microtitre cloning technique. TRX-E-002-1 was tested in three experimental conditions: 3-h incubation at 37 °C with and without metabolic activation system (Aroclor-induced rat liver S9 mix), and a 24-h incubation without metabolic activation (i.e. continuous treatment).

[5] = system: CYP2C9, CYP2C8, CYP2C19, CYP2B6, CYP3A4, CYP2D6, CYP2A6 and CYP1A2; experiment: Inhibition of cytochrome P450 enzymes in human hepatic microsomes; assay type: in vitro ADME; settings: liver microsomes, read-out: IC50 values, range over the CYP enzymes
Text: (§2) The potential for pharmacokinetic drug interactions resulting from inhibition of drug-metabolizing cytochrome P450 enzymes was investigated in human hepatic microsomes in vitro. TRX-E-002-1 inhibited multiple cytochrome P450 drug-metabolizing enzymes, including CYP2C9, CYP2C8, CYP2C19, CYP2B6, CYP3A4, CYP2D6, CYP2A6 and CYP1A2. […] In particular, the potential interaction between Cantrixil and paclitaxel, a CYP2C9 substrate frequently used in the treatment of ovarian cancer, needs to be considered.

CYP1A2 [6] = target: T1, CYP1A2 (Homo sapiens, UniProt P05177); experiment: Metabolism-dependent CYP inhibition in human hepatic microsomes; assay type: in vitro ADME
T1 construct: investigated in human hepatic microsomes in vitro; from tissue; host or cells: human hepatic microsomes
T1 sequence (P05177 whole entry): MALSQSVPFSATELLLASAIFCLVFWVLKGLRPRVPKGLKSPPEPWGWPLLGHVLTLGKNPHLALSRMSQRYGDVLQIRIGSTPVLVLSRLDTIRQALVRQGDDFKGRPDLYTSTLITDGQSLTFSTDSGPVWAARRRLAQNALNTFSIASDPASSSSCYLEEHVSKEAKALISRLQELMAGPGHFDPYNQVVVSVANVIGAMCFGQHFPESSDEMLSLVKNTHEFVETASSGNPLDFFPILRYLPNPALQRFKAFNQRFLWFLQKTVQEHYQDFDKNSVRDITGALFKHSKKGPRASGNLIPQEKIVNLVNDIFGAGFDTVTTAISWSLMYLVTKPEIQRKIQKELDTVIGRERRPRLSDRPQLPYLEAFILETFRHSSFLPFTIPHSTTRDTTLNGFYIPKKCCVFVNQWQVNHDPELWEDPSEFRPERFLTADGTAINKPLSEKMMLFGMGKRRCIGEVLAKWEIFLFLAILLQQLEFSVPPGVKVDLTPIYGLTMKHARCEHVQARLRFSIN
Text: as §2

CYP2C8 = target: T2, CYP2C8 (Homo sapiens, UniProt P10632); experiment: as above; assay type: in vitro ADME
T2 construct: investigated in human hepatic microsomes in vitro; from tissue; host or cells: human hepatic microsomes
T2 sequence (P10632 whole entry): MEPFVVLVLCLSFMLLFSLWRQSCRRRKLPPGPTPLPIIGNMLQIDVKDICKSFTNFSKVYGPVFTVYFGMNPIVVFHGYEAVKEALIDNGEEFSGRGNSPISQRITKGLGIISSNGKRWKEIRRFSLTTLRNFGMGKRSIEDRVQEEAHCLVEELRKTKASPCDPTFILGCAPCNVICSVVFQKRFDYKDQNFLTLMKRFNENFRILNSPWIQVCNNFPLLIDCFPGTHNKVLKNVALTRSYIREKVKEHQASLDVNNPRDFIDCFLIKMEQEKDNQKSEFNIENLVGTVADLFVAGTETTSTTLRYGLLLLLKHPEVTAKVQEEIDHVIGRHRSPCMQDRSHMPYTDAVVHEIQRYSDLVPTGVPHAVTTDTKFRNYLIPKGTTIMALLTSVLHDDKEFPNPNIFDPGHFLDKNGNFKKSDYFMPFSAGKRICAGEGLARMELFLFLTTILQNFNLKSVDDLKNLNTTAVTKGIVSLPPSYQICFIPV
Text: as §2

CYP3A4 [7] = target: T3, CYP3A4 (Homo sapiens, UniProt P08684); experiment: as above; assay type: in vitro ADME
T3 construct: investigated in human hepatic microsomes in vitro; from tissue; host or cells: human hepatic microsomes
T3 sequence (P08684 whole entry): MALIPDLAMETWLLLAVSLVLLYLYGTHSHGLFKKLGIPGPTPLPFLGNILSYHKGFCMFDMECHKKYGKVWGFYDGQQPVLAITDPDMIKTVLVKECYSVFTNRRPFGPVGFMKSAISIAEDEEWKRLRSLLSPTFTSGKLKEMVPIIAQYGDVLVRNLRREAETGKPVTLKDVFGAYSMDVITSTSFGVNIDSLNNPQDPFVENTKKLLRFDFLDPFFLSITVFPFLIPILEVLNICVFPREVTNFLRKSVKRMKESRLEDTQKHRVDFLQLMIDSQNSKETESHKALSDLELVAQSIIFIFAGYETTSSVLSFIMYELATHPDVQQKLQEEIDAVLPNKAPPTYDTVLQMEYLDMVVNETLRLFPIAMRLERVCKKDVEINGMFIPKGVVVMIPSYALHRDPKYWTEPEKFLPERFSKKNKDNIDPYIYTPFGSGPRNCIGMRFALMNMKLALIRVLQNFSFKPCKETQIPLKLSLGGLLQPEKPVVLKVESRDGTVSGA
Text: as §2

[8] = Rat 14-day pilot repeat-dose intraperitoneal toxicity study; assay type: in vivo; settings: for deaths: 50 mg/kg/day; for AUC(0-t) / Cmax: plasma, Day 14, 5 mg/kg/day; for Cmax: read-out: plasma C max
Method: Clinical signs at all dose levels were reduced and/or liquid faeces, and staining of the fur of the forelimbs or around the eyes, nose and snout. […] Macroscopic pathology findings were limited to the 50 mg/kg/day group and included small testes, small thymus and small spleen.

[9] = system: Salmonella typhimurium strains TA1535, TA1537, TA98 and TA100; experiment: Bacterial reverse mutation test, plate assay; assay type: cell-based; settings: absence or presence of S9 mix
Method: (§3) The assays were performed in compliance with GLP regulations.
(§4) The bacterial reverse mutation test employed Salmonella typhimurium strains TA1535, TA1537, TA98 and TA100, and Escherichia coli strain WP2uvrA in a conventional plate assay, with and without exogenous metabolic activation by a rat liver post-mitochondrial fraction (S9 mix).

[10] = system: Escherichia coli strain WP2uvrA; experiment: Bacterial reverse mutation test, plate assay; assay type: cell-based; settings: absence or presence of S9 mix
Method: as §3, §4

[11] = system: chemo-resistant CD44+/MyD88+ OCSC clones; experiment: Cell death in ovarian cancer stem cell clones; assay type: cell-based, human; settings: grown separately or in co-cultures
Text: Tumour recurrence post-chemotherapy is caused by the regrowth of the surviving innately drug-resistant cancer stem cells that remain in tumour niches during and post-chemotherapy. The expansion of this chemo-resistant cancer cell population, coupled with upregulation of pro-survival pathways due to drug pressure, is thought to be responsible for the development of chemo-resistant recurrent disease. Further, the inherent heterogeneity of ovarian tumours consists of epithelial cells with varying potential for stemness, and a population of cancer cells with varying mesenchymal status and invasiveness potential. Therefore, to improve survival, a practical approach is the use of novel therapies that can induce cell death in these various subtypes of ovarian cancer cells. TRX-E-002-1 was assessed against ovarian cancer stem cell line OCSC2, characterised by their expression of stem cell markers including CD44 and […] [22]. A major characteristic of these cells is that they are drug resistant, able to form self-renewing spheroids in non-adherent culture, and recreate disseminated drug-resistant ovarian tumours that have a high degree of heterogeneity similar to the clinical profile observed in patients when inoculated into the peritoneal cavity of an immune-compromised mouse.

[12] = female, Sprague-Dawley, rat, ip, females
[13] = male, Sprague-Dawley, rat, ip, males

COc1cc([C@@H]2COc3c(ccc(O)c3C)[C@@H]2c2ccc(O)cc2)cc(OC)c1O [TRX-E-002-1, (+) cis-4-(para-hydroxyphenyl)-7,4′-dihydroxy-3′,5′-dimethoxy-8-methylisoflavan]
parent drug in urine ([1]; up to 24 h after dosing): High levels | parent drug in faeces ([1]; up to 48 h after dosing): High levels | induction of CYP3A4 (CYP3A4 [2]): Equivocal evidence | CYP1A2 induction (CYP1A2 [3]): No evidence | induction of CYP2B6 (CYP2B6): Equivocal evidence | mutant frequencies compared with control values [4]: did not show statistically significant differences | IC50 [5]: 1.5 µM to 75 µM and 0.612 µg/mL to 30.6 µg/mL | metabolism-dependent inhibition (CYP1A2 [6]): observed | metabolism-dependent inhibition (CYP2C8): observed | metabolism-dependent inhibition (CYP3A4 [7]): observed | deaths ([8]; females): 8/11 | deaths ([8]; males): 9/11 | NOAEL at 14 days ([8]; both sexes, Sprague-Dawley, rat, in vivo, ip): 5 mg/kg/day | AUC(0-t) [8, 12]: 665 ng·h/mL | Cmax [8, 12]: 257 ng/mL | doses with reduced body weight gain ([8]; females): ≥ 15 mg/kg/day | AUC(0-t) [8, 13]: 1870 ng·h/mL | Cmax [8, 13]: 909 ng/mL | doses with reduced body weight gain ([8]; males): ≥ 5 mg/kg/day | number of revertant colonies [9]: no significant increases | number of revertant colonies [10]: no significant increases | induction of cell death [11]: able to induce cell death
